Data published in patent US7396817B2, “Biologically active peptides comprising Isoleucyl-valyl-threonyl-asparaginyl-threonyl-threonine (IVTNTT)” (CMS Peptides Patent Holding Company Limited, priority 2003, dated 2008).
Marks after values point to notes of the source that are not given here. No end group written: not given here.

Tests used:
HBsAg = details: at 400 μg/ml, day 8, 2.2.15 cell supernatant
Protocol: (§1) a. Inhibitory effect of CMS017 on HBsAg and HBeAg at maximum non-toxic concentration in vitro 2.2.15 cells, growing at logarithmic phase, were harvested and re-suspended in MEM culture medium (containing 10% calf serum, […], and 100 U/ml streptomycin) as a 2×10^6/ml cell suspension. The suspension was inoculated into a 24-well cell culture plate with 1.5 ml per well, and incubated at 37° C., 5% CO2 for 48 hours. The test substance CMS017 was diluted and added to the 2.2.15 cultures to final concentrations of 0, 50, 100, 200, 400, 800 μg/ml, with 3 parallel samples per concentration. The cells were then incubated at 37° C., 5% CO2. The supernatant was refreshed on days 3 and 6. The cytotoxicity of CMS017 on 2.2.15 cell cultures was then observed with MTT staining on day 8, and the maximum non-toxic concentration of CMS017 was determined.
(§2) The preparation and incubation of cell suspensions were repeated as above with the determined maximum non-toxic concentration of CMS017, and with parallel negative and positive controls (lamivudine with the same concentration as CMS017 was used as the positive control). On the 8th day, the titers of HBsAg and HBeAg in the cell culture supernatants were determined by ELISA^[1,2], using conditions described by the kit supplier. The inhibition percentage of each test substance was calculated as shown below. Inhibitory percentage (%)=(blank control−sample)/blank control×100 Cell survival percentage (%)=sample (A595−A650)/blank control (A595−A650)×100

HBeAg = details: at 400 μg/ml, day 8, 2.2.15 cell supernatant
Protocol: as §1, §2

HBV-DNA = assay: Inhibition of supernatant HBV-DNA in 2.2.15 cells (fluorescent quantitative PCR); details: for IC50 (HBV-DNA): 2.2.15 cell supernatant; for IC50 (HBV-DNA) / inhibitory percentage for supernatant HBV-DNA: day 8; for inhibitory percentage for supernatant HBV-DNA: at the concentration of 160 μg/ml
Protocol: (§3) Cell suspensions were prepared and incubated as described in Method 1 above. […] The culture media, with added test substance, were exchanged on days 3 and 6. On the 8th day, the supernatants of the cell cultures were harvested for the determination of HBV-DNA concentrations by fluorescent quantitative PCR^[3,4], using the method described by the kit supplier. The cultured cells were taken for analysis of the cytotoxicity of each test substance. The inhibitory percentage of the drug was calculated in the following manner: Inhibitory percentage (%)=(blank control−sample)/blank control×100 Cell survival percentage (%)=sample (A595−A650)/blank control (A595−A650)×100
(§4) TC50 was defined as the test substance concentration at which the percentage of surviving cells in the test group is 50% of that of the control group. IC50 was the test substance concentration at which the percentage of reduction of HBV-DNA concentration is 50% compared to control. These were determined by plotting the corresponding percentage against the test substance concentrations. The selection index (SI) was calculated as TC50/IC50. The bigger the value of SI, the higher the inhibition activity of test substance is and the less cytotoxic it is.

hepG 2 2.2.15 cell line = assay: Cytotoxicity of CMS017 on 2.2.15 cell cultures, MTT staining (maximum non-toxic concentration); type: cell-based; details: 2.2.15 cells, MTT staining on day 8
Protocol: as §1

[1] = Cytotoxicity (cell survival, TC50) in the HBV-DNA experiment; type: cell-based; details: human, HepG2 2.2.15 cells, day 8, concentration at which cell survival is 50% of control
Protocol: as §3, §4

[2] = test system: T lymphocyte transformation; assay: ConA-induced T lymphocyte transformation of spleen cells from treated mice (MTT); type: in vivo, BALB/c mice; details: for stimulation index (X ± SD): BALB/c mice, spleen cells + ConA
Protocol: The day after the last test substance administration, the mice were sacrificed by cervical dislocation. The spleen was isolated aseptically and manually dispersed in cold D-Hank's solution using an injection needle. The dispersed cell suspension was further sieved through a 100 gauge 150 μm diameter stainless steel sieve. After centrifugation at 200 g for 10 minutes, the supernatant was discarded. […] The suspended cells were collected by centrifugation at 150 g for 10 minutes. […] The cells were then pelleted by centrifugation at 150 g for 10 minutes. […] The incubation was continued for 4 hours.

| Compound | Inhibition ratio of HBsAg (HBsAg) | Inhibition ratio of HBeAg (HBeAg) | IC50 (HBV-DNA) (HBV-DNA) | SI (selection index, TC50/IC50) (HBV-DNA) | inhibitory percentage for supernatant HBV-DNA (HBV-DNA) | maximum non-toxic concentration (hepG 2 2.2.15 cell line) | CC50 at 192 h [1] | stimulation index (X ± SD) ([2]; 50 μg/kg/day i.p. for 28 days) | effect on T lymphocyte transformation (in words) ([2]; 50 μg/kg/day, compared with the saline control group (P<0.05)) | stimulation index (X ± SD) ([2]; 200 μg/kg/day i.p. for 28 days) |
| --- | --- | --- | --- | --- | --- | --- | --- | --- | --- | --- |
| Nc1ccn([C@@H]2CS[C@H](CO)O2)c(=O)n1 [Lamivudine, lamivudine, reference compound] | 29.6%* | 35.4%* | – | – | – | – | – | – | – | – |
| vidarabine monophosphate [Ara-AMP, reference compound] | – | – | 11.4 µg/mL | 5.6 | 89.1%* | – | – | – | – | – |
| IVTNTT [CMS017, L-Isoleucyl-L-valyl-L-threonyl-L-asparaginyl-L-threonyl-L-threonine] | 68.6%* | 62.2%* | 2.3 µg/mL | 577.7 | 90.8% | 400 µg/mL | 1330 µg/mL | 2.82 ± 0.41 | enhance T lymphocyte transformation | 2.65 ± 0.51 |
